In US6541482B2, “Carbocyclic nucleoside agents useful as selective inhibitors of proinflammatory cytokines” (priority 1993, dated 2003):

What was measured:
TNF-α = test: Inhibition of TNF-α production by LPS-stimulated human monocyte-derived macrophages; format: cell-based; conditions: Macrophage; monocyte-derived macrophages from human peripheral blood, stimulated with LPS, 18 hours of culture; dose response 500 μM-0.1 μM; read-out: IC50 for inhibiting TNF-α levels
Method: Monocyte-derived macrophages stimulated with bacterial lipopolysaccharide (LPS) produce high levels of TNF-α (14.87±1.02 ηg/mL) during 18 hours of culture.

lethal effects of LPS = test: D-galactosamine animal model of septic shock (protection against lethal effects of LPS); format: in vivo; conditions: treated about 1 hour before i.p. challenge of D-galactosamine and LPS, 100 mg/kg i.p. for the azido compound; for protection: mice, vehicle HBSS 0% protection; for mice killed: vehicle HBSS 6 out of 6 killed by 18 hours
Method: Mice treated with the vehicle Hanks Balanced Salt Solution (HBSS) approximately 1 hour before intraperitoneal (i.p.) challenge of D-galactosamine and LPS, succumb to disease by 18 hours after challenge (e.g. 6 out of 6 mice killed; 0% protection). […] Positive-control PTX afforded […] protection in this model (3 out of 6 mice killed; 50% protection).

**Q.** How did the IC50 (TNF-α) turn out when `[N-]=[N+]=NC1CCC(n2cnc3c(N)ncnc32)C1` (stereo not drawn) [1R,3R-trans-1-(9-adenyl)-3-azidocyclopentane] was run?
**A.** 5.48 ± 1.3 µM

**Q.** What about the protection (lethal effects of LPS) of the same compound?
**A.** 66%

**Q.** What about the mice killed (lethal effects of LPS) of the same compound?
**A.** 2 out of 6

**Q.** `CC(=O)CCCCn1c(=O)c2c(ncn2C)n(C)c1=O` [Pentoxifylline] was tested. Which IC50 (TNF-α) did it give?
**A.** 26.3 ± 16 µM

**Q.** What about the protection (lethal effects of LPS) of the same compound?
**A.** 50%

**Q.** And the mice killed (lethal effects of LPS)?
**A.** 3 out of 6
